The supplement of paper PMC11061612

Tests used:
Mewo (Melanoma) = assay: combination Emax (second highest fraction inhibited in the dose matrix, 72 h); higher = more inhibition; extreme values may be limits of the assay
Outline: (§1)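 Bliss excess equals the observed combination effect minus the expected value EA + EB − EA·EB, where EA and EB are the effects of each agent alone. Combination Emax is the second-highest inhibition within the matrix. Inhibition was scaled from CellTiter-Glo 2.0 luminescence, with 0 set by vehicle wells and 1 by blank wells, after 72 hours of two-drug dosing of cells plated in 1536-well plates.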

[1] = tested on: SW1116 (Colorectal Carcinoma); assay: as above
Outline: as §1

[2] = tested on: KARPAS-231 (B-Cell Non-Hodgkin's Lymphoma); assay: as above
Outline: as §1

[3] = tested on: CAPAN-1 (Pancreatic Carcinoma); assay: as above
Outline: as §1

NCI-H2795 (Mesothelioma) = assay: Bliss excess, mean over the matrix (fraction); higher = more synergy
Outline: as §1

[4] = tested on: OC-314 (Ovarian Carcinoma); assay: as above
Outline: as §1

[5] = tested on: TE-4 (Esophageal Squamous Cell Carcinoma); assay: as above
Outline: as §1

[6] = tested on: SUP-T1 (T-Lymphoblastic Leukemia); assay: as above
Outline: as §1

[7] = tested on: SW1271 (Small Cell Lung Carcinoma); assay: as above
Outline: as §1

NB14 (Neuroblastoma) = assay: as above
Outline: as §1

[8] = tested on: LU-139 (Small Cell Lung Carcinoma); assay: as above
Outline: as §1

[9] = tested on: NCI-H69 (Small Cell Lung Carcinoma); assay: as above
Outline: as §1

COLO-829 (Melanoma) = assay: as above
Outline: as §1

[10] = tested on: RT-112 (Bladder Carcinoma); assay: as above
Outline: as §1

[11] = tested on: K5 (Thyroid Gland Carcinoma); assay: as above
Outline: as §1

[12] = tested on: HDLM-2 (Hodgkin's Lymphoma); assay: as above
Outline: as §1

[13] = tested on: MHH-PREB-1 (B-Cell Non-Hodgkin's Lymphoma); assay: as above
Outline: as §1

[14] = tested on: CAPAN-1 (Pancreatic Carcinoma); assay: as above
Outline: as §1

[15] = tested on: SW626 (Colorectal Carcinoma); assay: as above
Outline: as §1

[16] = tested on: RKO (Colorectal Carcinoma); assay: as above
Outline: as §1

| Structure (SMILES) | combination Emax (Mewo (Melanoma)) | combination Emax [1] | combination Emax [2] | combination Emax [3] | Bliss excess (NCI-H2795 (Mesothelioma)) | Bliss excess [4] | Bliss excess [5] | Bliss excess [6] | Bliss excess [7] | Bliss excess (NB14 (Neuroblastoma)) | Bliss excess [8] | Bliss excess [9] | Bliss excess (COLO-829 (Melanoma)) | Bliss excess [10] | Bliss excess [11] | Bliss excess [12] | Bliss excess [13] | Bliss excess [14] | Bliss excess [15] | Bliss excess [16] |
| --- | --- | --- | --- | --- | --- | --- | --- | --- | --- | --- | --- | --- | --- | --- | --- | --- | --- | --- | --- | --- |
| Cn1cnc2c(F)c(Nc3ccc(Br)cc3Cl)c(C(=O)NOCCO)cc21 [Selumetinib] + C[C@@H]1COCCN1C2=NC(=NC(=C2)C3(CC3)[S@](=N)(=O)C)C4=C5C=CNC5=NC=C4 [AZD6738] (first compound max 10 µM, 7x7, partner max 10 µM) | 0.466 | 0.476 | 0.639 | 0.585 | -0.0239 | -0.0764 | -0.0063 | -0.0747 | 0.0072 | -0.0232 | -0.0259 | -0.0686 | 0.102 | -0.0088 | 0.045 | -0.0422 | -0.0416 | 0.0147 | 0.0756 | -0.0041 |
| NC1(C(=O)N[C@@H](CCO)c2ccc(Cl)cc2)CCN(c2ncnc3[nH]ccc23)CC1 [Capivasertib] + CC(C)n1c(=O)n(C)c2cnc3cc(F)c(-c4ccc(OCCCN5CCCCC5)nc4)cc3c21 [AZD1390] (first compound max 10 µM, 7x7, partner max 0.3 µM) | 0.365 | 0.215 | 0.215 | 0.044 | -0.0483 | -0.0412 | -0.0233 | -0.0615 | -0.0347 | -0.0269 | -0.0204 | -0.0793 | -0.126 | -0.0581 | -0.0539 | -0.0002 | -0.0353 | -0.0812 | -0.0828 | -0.0429 |
| CCN(CCO)CCCOc1ccc2c(Nc3cc(CC(=O)Nc4cccc(F)c4)[nH]n3)ncnc2c1 [AZD2811] + C=CCn1c(=O)c2cnc(Nc3ccc(N4CCN(C)CC4)cc3)nc2n1-c1cccc(C(C)(C)O)n1 [AZD1775] (first compound max 1 µM, partner max 1 µM) | 0.402 | 0.208 | 0.993 | 0.416 | -0.0117 | 0.0976 | -0.0057 | 0.0302 | -0.02 | -0.0236 | -0.0426 | -0.0671 | 0.0009 | 0.0233 | -0.0062 | 0.0252 | -0.0254 | -0.0733 | -0.0443 | -0.0625 |
| NC1(C(=O)N[C@@H](CCO)c2ccc(Cl)cc2)CCN(c2ncnc3[nH]ccc23)CC1 [Capivasertib] + Cn1cnc2c(F)c(Nc3ccc(Br)cc3Cl)c(C(=O)NOCCO)cc21 [Selumetinib] (first compound max 10 µM, 7x7, partner max 10 µM) | 0.589 | 0.453 | 0.0035 | 0.476 | 0.0097 | 0.0668 | 0.102 | 0.0063 | 0.0312 | -0.0654 | -0.0165 | -0.0198 | 0.0367 | 0.01 | 0.0944 | -0.0118 | -0.0067 | -0.0081 | 0.0124 | 0.0463 |
| Cc1c2c(nn1C)CSCc1cc(n(C)n1)CSc1cc(c3ccccc3c1)OCCCc1c(C(=O)O)n(C)c3c-2c(Cl)ccc13 [AZD5991] + C[C@@H]1COCCN1C2=NC(=NC(=C2)C3(CC3)[S@](=N)(=O)C)C4=C5C=CNC5=NC=C4 [AZD6738] (first compound max 1 µM, 7x7, partner max 10 µM) | 0.59 | 0.281 | 1 | 0.488 | 0.0835 | 0.0197 | 0.0683 | -0.024 | 0.0121 | -0.0038 | 0.0214 | -0.0477 | 0.0471 | 0.0348 | 0.0076 | -0.0291 | -0.0095 | -0.0167 | 0.0268 | 0.0082 |
| Cn1cnc2c(F)c(Nc3ccc(Br)cc3Cl)c(C(=O)NOCCO)cc21 [Selumetinib] + CC(C)n1c(=O)n(C)c2cnc3cc(F)c(-c4ccc(OCCCN5CCCCC5)nc4)cc3c21 [AZD1390] (first compound max 10 µM, 7x7, partner max 0.3 µM) | 0.403 | 0.502 | 0.225 | 0.376 | -0.0439 | -0.0357 | -0.0461 | -0.0481 | 0.0379 | 0.0021 | -0.0259 | -0.0305 | -0.0578 | -0.0217 | -0.021 | -0.0509 | -0.0218 | -0.0537 | -0.0121 | -0.0273 |
| CC1(C)CCC(CN2CCN(c3ccc(C(=O)NS(=O)(=O)c4ccc(NCC5CCOCC5)c([N+](=O)[O-])c4)c(Oc4cnc5[nH]ccc5c4)c3)CC2)=C(c2ccc(Cl)cc2)C1 [Venetoclax] + Cn1cnc2c(F)c(Nc3ccc(Br)cc3Cl)c(C(=O)NOCCO)cc21 [Selumetinib] (first compound max 1 µM, 7x7, partner max 3 µM) | 0.528 | 0.453 | 0.812 | 0.314 | -0.0354 | -0.0214 | -0.0277 | -0.0723 | -0.0255 | -0.0221 | -0.0357 | -0.105 | -0.0392 | 0.0554 | -0.0402 | -0.0245 | 0.0028 | -0.057 | -0.0877 | 0.0171 |
| COc1cccc(OCCCN)c1-c1cc(Nc2cnc(C#N)cn2)n[nH]1 [Prexasertib] + O=C(c1cc(Cc2n[nH]c(=O)c3ccccc23)ccc1F)N1CCN(C(=O)C2CC2)CC1 [Olaparib] (first compound max 1 µM, 7x7, partner max 10 µM) | 0.505 | 0.565 | 0.974 | 0.595 | -0.024 | -0.0616 | 0.015 | -0.0966 | -0.0602 | -0.0553 | -0.0401 | 0.0332 | -0.058 | -0.137 | -0.051 | -0.046 | -0.125 | -0.111 | -0.074 | -0.0165 |
| COc1cccc(OCCCN)c1-c1cc(Nc2cnc(C#N)cn2)n[nH]1 [Prexasertib] + Cc1cc2ncnn2cc1Nc1ncc2c(n1)n(C1CCOCC1)c(=O)n2C [AZD7648] (first compound max 1 µM, 7x7, partner max 10 µM) | 0.516 | 0.463 | 0.984 | 0.585 | -0.0556 | -0.0286 | -0.003 | -0.0536 | -0.0014 | -0.0047 | -0.015 | 0.0337 | 0.0467 | -0.0357 | -0.0405 | -0.0934 | -0.0322 | -0.0274 | 0.0236 | -0.0193 |
| COc1nnc2ccc(N3CCC(c4ccc(OCCN5CCN(C)C(=O)[C@H]5C)cc4)CC3)nn12 [AZD5153] + C[C@@H]1COCCN1C2=NC(=NC(=C2)C3(CC3)[S@](=N)(=O)C)C4=C5C=CNC5=NC=C4 [AZD6738] (first compound max 1 µM, 7x7, partner max 10 µM) | 0.604 | 0.432 | 0.752 | 0.54 | 0.0037 | 0.0111 | 0.0983 | -0.0445 | -0.0204 | -0.043 | 0.01 | 0.0358 | -0.0138 | 0.0298 | -0.0057 | -0.0567 | 0.0605 | -0.022 | 0.054 | -0.0442 |
| C[C@@H](c1ccc2nccn2c1)n1nnc2ncc(-c3cnn(C)c3)nc21 [Savolitinib] + CC1(C)CCC(CN2CCN(c3ccc(C(=O)NS(=O)(=O)c4ccc(NCC5CCOCC5)c([N+](=O)[O-])c4)c(Oc4cnc5[nH]ccc5c4)c3)CC2)=C(c2ccc(Cl)cc2)C1 [Venetoclax] (first compound max 1 µM, 7x7, partner max 1 µM) | 0.194 | 0.145 | 0.866 | 0.181 | 0.0032 | -0.0046 | -0.009 | -0.0456 | -0.0436 | -0.0082 | -0.0256 | -0.0144 | -0.0411 | -0.046 | -0.0374 | -0.0465 | -0.0286 | -0.0613 | -0.066 | -0.05 |
| CN(C)CCCOc1ccc(-c2ccc3ncc4c(c3c2)n(C2CCOCC2)c(=O)n4C)cn1 [AZD0156] + O=C(c1cc(Cc2n[nH]c(=O)c3ccccc23)ccc1F)N1CCN(C(=O)C2CC2)CC1 [Olaparib] (first compound max 3 µM, partner max 3 µM) | 0.322 | 0.206 | 0.371 | 0.295 | 0.0432 | 0.145 | 0.0387 | 0.0598 | 0.0098 | 0.218 | 0.0352 | 0.0386 | -0.0578 | 0.0239 | 0.0542 | 0.0319 | 0.0175 | -0.0864 | -0.0326 | 0.0736 |
| COc1cc2ncnc(Nc3ccc(F)c(Cl)c3)c2cc1OCCCN1CCOCC1 [Gefitinib] + CC(C)n1c(=O)n(C)c2cnc3cc(F)c(-c4ccc(OCCCN5CCCCC5)nc4)cc3c21 [AZD1390] (first compound max 10 µM, 7x7, partner max 0.3 µM) | 0.0376 | 0.241 | 0.24 | 0.253 | -0.0631 | -0.0314 | -0.0286 | -0.0389 | -0.0388 | -0.0145 | -0.0251 | -0.0122 | -0.0599 | -0.0548 | -0.0479 | -0.0768 | -0.0748 | -0.0286 | -0.0777 | -0.0362 |
| CN(CCO)CC[C@H](CSc1ccccc1)Nc1ccc(S(=O)(=O)NC(=O)c2ccc(N3CCC([C@@H](O)c4ccccc4-c4ccc(Cl)cc4)CC3)cc2)cc1S(=O)(=O)C(F)(F)F [AZD4320] + Cn1cnc2c(F)c(Nc3ccc(Br)cc3Cl)c(C(=O)NOCCO)cc21 [Selumetinib] (first compound max 1 µM, 7x7, partner max 3 µM) | 0.528 | 0.599 | 0.977 | 0.802 | -0.02 | 0.0048 | 0.0025 | -0.0462 | 0.0306 | 0.0033 | -0.006 | -0.0245 | -0.0351 | 0.113 | -0.0637 | 0.0231 | 0.0272 | 0.0665 | 0.0271 | 0.0229 |
